Measured values as given in patent US20130296370A1, “COMPOSITION COMPRISING A PHOTOACTIVATABLE LARVICIDE” (UNIVERSITA DEGLI STUDI DI PADOVA, priority 2010, published 2013).

Experiments:
Aedes aegypti = assay: Laboratory-scale tray larvicide test; assay type: in vivo; settings: carrier mouse food; 70 mg per tray; loading concentration 5 μM; fluorescent lamp
Experimental: Laboratory strains of Anopheles stephensi, M and S (Kisumu), chromosomal forms of An. gambiae, An. arabiensis and Aedes aegypti, as well as field-collected Anopheles spp. and Aedes spp. larvae were used. Laboratory mosquitoes were maintained at 28-30° C., >90% RH and a photoperiod of 12 h. Light intensity ranged between 0.5 mW/cm^2 (fluorescent lamp) and 185 mW/cm^2 (sunlight).
C12 or C14 porphyrin solutions at 5-100 μM concentrations were pre-incubated at room temperature in the darkness with 15-60 mg of carrier (either Eudragit or ground mouse food or cat food) for 4-12 hours under gentle shaking. After incubation the solutions were filtered, and the loaded carrier was dried at room temperature or in an oven (45° C.).
Batches of 60-100 L2, L3 or L4 larvae were introduced into the trays after sunset (or artificial light off). Larval mortality was evaluated the next day starting from 8.00 am, and the time required to reach at least 90% mortality was recorded. Larvae not moving or not showing an escaping response at probing were defined as dead or dying, and counted together (Tables 2 and 3). Pupae occasionally formed throughout the irradiation time were discarded and excluded from the evaluation. An equal number of batches of larvae prepared in the same way were kept in continuous darkness and mortality was evaluated similarly, to assess toxicity in the dark. […]

[1] = Photostability of C14 porphyrin in aqueous medium; assay type: physicochemical; settings: 2.5 μM in PBS; visible light 20 mW/cm^2 for up to 60 minutes
Experimental: The photostability of the C14 porphyrin was determined in phosphate-buffered saline (PBS) upon illumination of a 2.5 μM porphyrin solution (initial absorbance around 0.5 at 424 nm) with white light (400-800 nm), which was isolated from the emission of a quartz-halogen lamp equipped with broad band filters to eliminate UV and infrared radiation. The light source was supplied by Teclas (Lugano, Switzerland), and operated at a fluence rate of 20 mW/cm^2. During irradiation the porphyrin solution was kept in agitation on a magnetic stirrer at room temperature. The concentration of the porphyrin in the aqueous solution was monitored spectrophotometrically at different irradiation times up to 60 min, and the photostability was expressed as the percent residual absorbance referred to the absorbance measured before irradiation.
The stability of C14 to the effect of full spectrum visible light was studied for a 2.5 μM porphyrin solution in PBS. The exposure of the porphyrin to visible light at a fluence rate of 20 mW/cm^2 for up to 60 minutes caused a decrease in the overall absorbance of less than 10%, which involved the whole set of bands in the blue, green and red spectral region. […]

[2] = Aggregation of C14 by Beer-Lambert titration; assay type: physicochemical; settings: aqueous solution; linear plot of Soret band at 424 nm
Experimental: To test the possible occurrence of aggregation processes for this porphyrin, the intensity of the Soret band was titrated as a function of the porphyrin concentration according to the Beer-Lambert law. In a first phase of our investigations, the data were calculated up to a porphyrin concentration of 0.16 mM (FIG. 1A), since the optical density of more concentrated porphyrin solutions became too large even using cuvettes of 0.1 cm optical path. […] This spectral feature is generally attributed to the presence of porphyrin oligomers (Reddi E, Ceccon M, Valduga G, Joni G, Bommer J C, et al. (2002) Photophysical properties and antibacterial activity of meso-substituted cationic porphyrins. Photochem Photobiol 75: 462-470). To test the possibility that the hydrophobicity imparted by the long alkyl chain of C14 may favour the occurrence of some aggregation as the concentration increases, the titration was extended to larger molarities calculating the absorbance values at 404 nm instead of 424 nm (FIG. 2B).

[3] = system: 3rd-4th instar Ae. aegypti larvae; assay: Larvicidal efficacy of C14 porphyrin (LC50); assay type: in vivo; settings: 6 mg PFP
Experimental: Irradiation of mosquito larvae were performed by employing full spectrum visible light (400-800 nm) at a fluence rate of 1.0 to 4.0 mW/cm^2 using low-pressure mercury discharge fluorescent tubes TL-D Standard Colours (TL-D 58W/33-640 1SL, PHILIPS, EC). The intensity of the incident radiation was measured by an ILT1400A radiometer/photometer, equipped with a SED623/HNK15 multi-junction thermopile detector (International Light Technologies Inc., MA, USA).
All the experiments were carried out in a climatic chamber at 28±2° C. with a regulated photoperiod of 12 hours. Transparent plastic trays, containing 500 ml C14 solutions or spring water were employed. Typically, 5±1 days old, 3rd-early 4th instar Aedes aegypti larvae were used. All the experiments were replicated three times.
Mortality data were analyzed by ANOVA and LSD post-hoc tests using SPSS v. 11.0 (SPSS Inc.). LC50 values and relevant statistics were obtained by nonlinear regression of mortality data, using OriginPro v. 7.5 (OriginLab Corp.).
Trays containing C14 porphyrin solutions at 7 increasing concentrations (range 0.03-4.3 μM), or spring water as a control, were provided with 6 mg of PFP each (wherein PFP means powdered food pellet (PFP) with final particle diameter of 5-500 μm diameter obtained by crushing a standard food pellet for laboratory rodents, namely 4RF18 GLP (Mucedola Srl, Italy) using an electric blender and then sieving at mesh diameter 500 μm) and then incubated in the dark for 48 hours. Batches of 100 larvae, fasted for the previous 24 hours, were introduced into the trays at 8.00 pm (beginning of the 12 hour-long dark period in the climatic chamber). Larval mortality was evaluated on the next day at 9 am (after 1 hour irradiation), 2 pm (6 hours irradiation) and 8 pm (12 hours irradiation). An additional mortality evaluation was performed on the following day at 8.00 am, after a further overnight incubation. Larvae not moving or not showing a normally vigorous escaping response at probing were defined as dead or dying, respectively, and counted together. Pupae occasionally formed during the experiment, which never exceeded 10% of the total number of larvae, were discarded and excluded from the evaluation.
C14 solutions were incubated with 6 mg PFP at 28±2° C. in the dark for 48 hours. Larvae (3rd-4th instar, n=100, 3 replicates) were introduced 12 hours before the start of the irradiation (fluence rate: 1.0-4.0 mW/cm^2).

For CCCCCCCCCCCCCC[n+]1ccc(-c2c3nc(c(-c4cc[n+](C)cc4)c4ccc([nH]4)c(-c4cc[n+](C)cc4)c4nc(c(-c5cc[n+](C)cc5)c5ccc2[nH]5)C=C4)C=C3)cc1.Cc1ccc(S(=O)(=O)[O-])cc1.Cc1ccc(S(=O)(=O)[O-])cc1.Cc1ccc(S(=O)(=O)[O-])cc1.Cc1ccc(S(=O)(=O)[O-])cc1 [C14, meso-tri(N-methyl-pyridyl), mono(N-tetradecyl-pyridyl)porphine], the “Time to reach ≧90% mortality” value (Aedes aegypti) was 3 h, the “decrease in the overall absorbance” value [1] was “less than 10%” and the “concentration up to which a purely monomeric state is indicated” value [2] was “up to 0.16 mM”. For the same compound, the LC50 ([3]; 12 light + 12 dark hours) was 110 nM, the LC50 ([3]; 1 hour of irradiation, 1.0-4.0 mW/cm^2) was 460 nM and the LC50 ([3]; 6 hours of irradiation, 1.0-4.0 mW/cm^2) was 250 nM. It also gave an LC50 ([3]; 12 hours of irradiation, 1.0-4.0 mW/cm^2) of 220 nM.
